Measurements taken from US20060177853A1, “Antidepressant drug target” (The Scripps Research Institute, priority 2005, published 2006).
“And” between values parts separate entries of the source, which are not always exact repeats. Identical values can stand only once. “Also recorded” adds a separate entry of the source. Like-named read-outs stand apart in the source and are kept apart here. Blank lines part the entries; values can stand above or below the compound they belong to. Square brackets hold non-standard residues; d marks the D form. Peptide text beside a SMILES is read from it. * marks the point of attachment. Fmoc = O=C(OCC1c2ccccc2-c2ccccc21)*; Cha = N[C@@H](CC1CCCCC1)C(=O)O; AMC = Cc1cc(=O)oc2cc(N*)ccc12

Experiments:
[1] = system: GalR2 sites; test: GalR2 binding sites in brain tissue after treatment, saturating [125I]galanin binding with galanin (2-11) as competitor; format: in vivo, rat; conditions: FLX 10 mg/kg i.p. 14 days
Protocol: (§1) Tissue dissections. Tissues used for RNA extraction or binding study were rapidly dissected after sacrifice and immediately frozen on dry ice. All dissections were performed by an experienced neuroanatomist with a rat brain slicer and for small structures, like LC and DRN, the punching method was used to assure reproducible dissection.
(§2) Membrane preparation and binding assay. DRN and LC were dissected from a total of 16 rats per group and samples from 4 animals were pooled. […] Incubations were at room temperature for 45 minutes and terminated by rapid filtration through glass fiber filters (Packard, Meriden, Conn.). After three washes with cold PBS (pH 7.4) containing 0.01 % (v/v) Triton X 100, the filter was counted with Cobra II auto Gamma counting systems (Parkard Bioscience, Downer Grove, Ill.).
(§3) Neurol. […] Anxiety 2000, 12, 170-7; Nolen, W. A., et al. Int. Clin. Psychopharmacol. […] Neurol. […] As GalR3 is not abundant in the regions tested, GalR1 sites were estimated by subtracting GalR2 sites from the sum of GalR1 and GalR2 receptor sites. […] Neurol.
(§4) Drug treatments. Fluoxetine (FLX, Sigma, St. Louis, Mo.) was dissolved in saline and administered i.p. at a dose of 10 mg/kg daily for 14 days for biochemical studies. Separate groups of rats received daily i.p. injections of FLX or saline vehicle for 14 days for testing in the forced swim task. […]

[2] = system: GalR1 sites; test: GalR1 binding sites in brain tissue after treatment, total galanin-binding sites minus GalR2 sites; format: in vivo; conditions: rat DRN, FLX 10 mg/kg i.p. 14 days
Protocol: as §1, §2, §3, §4

[3] = system: time spent active in forced swim test; test: Forced swim test; format: in vivo, rat
Protocol: Rats underwent aseptic stereotaxic surgery under ketamine (100 mg/kg, i.p.) xylazine (10 mg/kg, i.p.) anesthesia. A guide cannula 1.4 cm in length, of 26 gauge stainless steel hypodermic tubing (Plastics One, St. Louis, Mo.) was implanted into the right lateral ventricle at coordinates 0.5 mm posterior, 1.0 mm lateral to bregma, and 3.5 mm ventral to the surface of the skull. A 31 gauge stylet was secured to the guide cannula following the surgery. After surgery, rats were given at least 8 days recovery before the start of behavioral testing.
Fluoxetine (FLX, Sigma, St. Louis, Mo.) was dissolved in saline and administered i.p. at a dose of 10 mg/kg daily for 14 days for biochemical studies. Separate groups of rats received daily i.p. injections of FLX or saline vehicle for 14 days for testing in the forced swim task. On day 14, rats were administered FLX or saline i.p. at 45 minutes prior to the forced swim test and M40 (Bachem, King of Prussia, Pa.) or ACSF i.c.v. at 15 minutes prior to the forced swim test (see methods below). Single i.c.v. microinjections of M40 (8 nmol/2 μl ACSF) or ACSF (2 μl) were performed with a 10 μl Hamilton syringe connected via Becton Dickinson polyethylene tubing (PE20) to a 1.5 cm injector (Plastics One) fabricated from 31 gauge hypodermic tubing. The animal was allowed to freely explore a small cage during the infusion of 2 μl over 1.5 minutes, with each 1 μl separated by ten seconds, and an additional sixty seconds before the injector was withdrawn from the guide cannula. The treatments consisted of equal numbers of rats receiving one of the following combinations of treatments: saline+ACSF, saline+M40, FLX+ACSF, or FLX+M40. Additional treatment groups (n=10 per group) were examined in a separate forced swim test 45 minutes after i.p. injection of one of the following: 50% DMSO (w/v), galnon (Vulpes, Estonia; dissolved in 50% DMSO), or desipramine (Sigma, St Louis, Mo., 15 mg/kg in 50% DMSO).
Forced swim test. Rats were placed singly in a cylindrical glass container (48 cm height, 21 cm diameter) with tap water (25° C.) to a depth of 27 cm and tested for 10 minutes. Water was changed and the cylinder thoroughly rinsed after each test. Tests were recorded on videotape and later scored by an experienced observer blind to the experimental conditions of the rats.
Data for forced swim test studies utilizing galnon and desipramine were subject to a one factor analysis of variance (ANOVA), with drug treatment as the between subjects factor. For the M40 FLX study, data were subject to a two factor between subjects design, with chronic drug treatment (FLX vs vehicle) and i.c.v. drug (M40 vs ACSF) as the main factors. Significant main effects were followed up with Fisher's LSD posthoc test to determine specific group differences.

[4] = system: galanin mRNA; test: Quantitative real time PCR of galanin mRNA in rat brain regions after treatment; format: in vivo
Protocol: as §1
Quantitative real time PCR. Brain tissues obtained from 12 rats (DRN, LC, paraventricular nucleus of hypothalamus) or 6 rats (prefrontal cortex, amygadala, hippocampus) were pooled and total RNA was prepared with Trizol reagent (Invitrogen, Carlsbad, Calif.) following manufacturer's instructions. For galanin mRNA quantification in DRN and LC after FLX treatment, the experiment was repeated with 3 independent pools of 4 rats per treatment per brain region. Aliquots of total RNA (2 μg) and oligo(dT) primers were then reverse transcribed with ThermoScript RT (Invitrogen) at 51° C. for 60 minutes. Quantitative PCR was performed using a Roche LightCycler and LightCycler Fast Start DNA Master SYBR Green I mix (Roche Applied Science, Indianapolis, Ind.). […] Real time PCR assays included an initial 10 minutes, 94° C. step to activate Taq polymerase, followed by 35 cycles of denaturation 94° C., 10 seconds, annealing 58° C., 10 seconds, and extension 72° C., 25 seconds. The results were expressed in arbitrary units normalized by the expression levels of the reference gene, β-actin.
(§5) Drug treatments. Fluoxetine (FLX, Sigma, St. Louis, Mo.) was dissolved in saline and administered i.p. at a dose of 10 mg/kg daily for 14 days for biochemical studies. Separate groups of rats received daily i.p. injections of FLX or saline vehicle for 14 days for testing in the forced swim task. On day 14, rats were administered FLX or saline i.p. at 45 minutes prior to the forced swim test and M40 (Bachem, King of Prussia, Pa.) or ACSF i.c.v. at 15 minutes prior to the forced swim test (see methods below). Single i.c.v. microinjections of M40 (8 nmol/2 μl ACSF) or ACSF (2 μl) were performed with a 10 μl Hamilton syringe connected via Becton Dickinson polyethylene tubing (PE20) to a 1.5 cm injector (Plastics One) fabricated from 31 gauge hypodermic tubing. The animal was allowed to freely explore a small cage during the infusion of 2 μl over 1.5 minutes, with each 1 μl separated by ten seconds, and an additional sixty seconds before the injector was withdrawn from the guide cannula. The treatments consisted of equal numbers of rats receiving one of the following combinations of treatments: saline+ACSF, saline+M40, FLX+ACSF, or FLX+M40. […] One week after the forced swim test, rats were randomly assigned to treatment groups. Rats were treated with vehicle, galnon or desipramine. Forty five minutes after injection, rats were subjected to the open field test.

[5] = system: time spent active in forced swim test; conditions: dose that suppresses status epilepticus; Bartfai et al. 2004; cited from earlier work
[6] = system: withdrawal signs; conditions: Zachariou et al. 2003, cited from earlier work
[7] = molecular target: T1, rat GalR2 (Rattus norvegicus, UniProt O08726); test: Displacement of [125I]galanin binding from membranes of GalR2-expressing cells; conditions: data not shown
T1 construct: expressed in transfected cells; host or cells: CHO cells, stably transfected
T1 sequence (O08726 1-372): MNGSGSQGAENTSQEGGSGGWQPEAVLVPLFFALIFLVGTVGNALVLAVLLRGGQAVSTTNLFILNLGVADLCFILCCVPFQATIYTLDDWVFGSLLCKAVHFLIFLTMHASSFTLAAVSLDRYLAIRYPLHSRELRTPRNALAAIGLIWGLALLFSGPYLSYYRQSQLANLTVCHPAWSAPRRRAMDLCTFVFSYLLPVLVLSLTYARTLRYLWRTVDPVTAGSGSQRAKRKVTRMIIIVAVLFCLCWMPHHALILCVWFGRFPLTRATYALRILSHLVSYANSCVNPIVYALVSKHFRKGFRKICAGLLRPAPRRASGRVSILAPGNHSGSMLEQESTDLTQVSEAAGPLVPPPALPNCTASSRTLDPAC
From the text: Cell lines. Stably transfected Chinese Hamster Ovary (CHO) cells expressing rat GalR2, and Bowes' melanoma cells that express human GalR1, were cultivated as described earlier (Wang, S., et al. Biochemistry 1998, 37, 6711-7; and Heuillet, E., et al. Eur. J. Pharmacol. 1994, 269, 139-47).
Membrane preparation and binding assay. DRN and LC were dissected from a total of 16 rats per group and samples from 4 animals were pooled. Rat brain synaptic membranes (Lu, X., et al. Neurosci. Lett. 2000, 286, 149-53) and cells were prepared as previously described (Heuillet, E., et al. Eur. J. Pharmacol. 1994, 269, 139 47). Equilibrium binding of ^125I, galanin (2200 Ci/mmol, PerkinElmer Life Science, Boston, Mass.) to hippocampal membrane preparations was performed in 150 μL binding buffer [50 mM Tris Cl (pH 7.4), 5 mM MgCl2, 0.05 % (w/v) bovine serum albumin, supplemented with protease inhibitors]. Incubations were at room temperature for 45 minutes and terminated by rapid filtration through glass fiber filters (Packard, Meriden, Conn.). After three washes with cold PBS (pH 7.4) containing 0.01 % (v/v) Triton X 100, the filter was counted with Cobra II auto Gamma counting systems (Parkard Bioscience, Downer Grove, Ill.).

[8] = system: locomotor activity (line crossing); test: Open field test; format: in vivo, rat; conditions: for locomotor activity in the open field (words): desipramine 15 mg/kg
Protocol: as §5, with “treatments. […]” for “treatments. Fluoxetine (FLX, Sigma, St.”, “and […]” for “and M40”, “or […].” for “or ACSF i.c.v.”, “or FLX+[…].” for “or FLX+M40.”, “groups. […]” for “groups. Rats were treated with vehicle, galnon or desipramine.”, “test. Open field test. One week after the forced swim test, rats were randomly assigned to treatment groups. […] The apparatus consisted of a square arena (100 by 100 cm), with a 40 cm high opaque white wall. The floor was marked into 9 equal segments and fluorescent light provided diffuse overhead illumination. Locomotor activity over 5 minutes was recorded on videotape. Tapes were later scored blind to the experimental condition of the animals. Line crossing behavior (defined as at least three paws in a square) was tallied and compared between experimental conditions.” for “test.”

[9] = system: seizures; conditions: Saar et al. 2002; cited from earlier work

SMILES: CNCCC(Oc1ccc(C(F)(F)F)cc1)c1ccccc1 (stereo not shown) [FLX, fluoxetine]
- increase in number of GalR2 binding sites in DRN ([1]; rat DRN): 50% and 58%
- effect on GalR2 sites in LC ([1]; rat LC): not in LC
- effect on number of GalR1 binding sites in DRN [2]: without changes; also recorded: unaltered
- increase in time spent active in the forced swim test vs saline-pretreated rats ([3]; FLX 10 mg/kg i.p. 14 days, 10 minute test, P<0.05): ~46%
- time spent active in the forced swim test ([3]; FLX 10 mg/kg i.p. 14 days, FLX+ACSF vs Saline+ACSF, p<0.05): significant increase
- increase in galanin mRNA levels in DRN ([4]; rat DRN, FLX 10 mg/kg i.p. 14 days): 100%
- increase in galanin mRNA levels in DRN ([4]; rat DRN, FLX 10 mg/kg i.p. 14 days, pooled samples): 2 fold
- effect on galanin mRNA in DRN ([4]; rat DRN, FLX 14 days, three independent pools, P<0.05 vs Ctrl): increased galanin mRNA
- increase in galanin mRNA levels in LC ([4]; rat LC, FLX 10 mg/kg i.p. 14 days, pooled samples): 2.2 fold
- effect on galanin mRNA in LC ([4]; rat LC, FLX 14 days): increased galanin mRNA

SMILES: COC(=O)[C@H](CCCCN)NC(=O)[C@]1(C)NC(=O)c2nc(oc2C)[C@](C)(C(=O)NC2c3ccccc3-c3ccccc32)NC(=O)c2nc(oc2C)[C@](C)(C(=O)NCC2CCCCC2)NC(=O)c2nc1oc2C [galmic]
- effect in the forced swim test [5]: antidepressant like effect

SMILES: Cc1cc(=O)oc2cc(NC(=O)[C@H](CCCCN)NC(=O)[C@H](CC3CCCCC3)NC(=O)OCC3c4ccccc4-c4ccccc43)ccc12 [galnon] (Fmoc-[Cha]-Lys-{AMC})
- effect on withdrawal signs (words) [6]: attenuate several withdrawal signs
- effect on withdrawal signs (words) ([6]; listed as Galnon): inhibit signs of opiate withdrawal
- increase in activity in the forced swim test ([3]; galnon 20 mg/kg i.p., p<0.05): significant
- increase in activity in the forced swim test ([3]; galnon 40 mg/kg i.p., p<0.01): significant
- activity in the forced swim test ([3]; galnon 1-40 mg/kg i.p., 45 minutes after injection): significant increase; also recorded: dose dependent increase
- Ki [7]: 34.1 µM
- activity in the open field ([8]; galnon 20 mg/kg, p<0.01): significantly reduced
- activity in the open field ([8]; galnon 40 mg/kg, p<0.05): significantly reduced
- activity in the open field ([8]; higher doses of galnon, P<0.05 vs control): significantly reduced activity
- latency of phenyleneterazol induced seizures [9]: increase the latency

- locomotor activity in the open field (words) ([8]; p<0.01): significantly reduced activity
- locomotor activity in the open field (words) ([8]; p<0.01, listed as Desipramine): significant reduction
SMILES: CNCCCN1c2ccccc2CCc2ccccc21 [desipramine]
- activity in the forced swim test ([3]; desipramine 15 mg/kg i.p., positive control): significantly increased activity
- increase in activity in the forced swim test ([3]; desipramine 15 mg/kg i.p., positive control, p<0.001): 125%
